Results taken from patent US7858610B2, “Preventive and/or remedy for lower urinary tract diseases containing EP4 agonist” (Ono Pharmaceutical Co., Ltd., priority 2004, dated 2010).

Test system: model of cyclophosphamide-induced cystitis in rats
Assay: Cystometry in the model of cyclophosphamide-induced cystitis in rats
Format: in vivo, rat
Settings: for decrease of the bladder compliance induced by cyclophosphamide: bladder capacity divided by voiding pressure
Procedure: Female Wistar rats (around 9 weeks old) were anesthetized with sodium pentobarbital (40 mg/kg, i.p.). After median incision of the hypogastrium, the top of bladder was incised. A catheter for use in cystometry was filled with physiological saline and then was inserted through the top hole into bladder. The other end of the catheter was fixed subcutaneously in the dorsal part. 0.1 mL Vicillin S500 (Meiji Seika Kaisha, Ltd.; 100 mg titers/mL distilled water/rat) was injected into the buttock muscle. Then, the rats were fed for 6 days or more, and subsequently subjected to the following treatment.
The model of cyclophosphamide-induced cystitis was prepared by a single dose intraperitoneal administration of cyclophosphamide (Sigma; 150 mg/kg). Distilled water is administered intraperitoneally for the control group.
The test compound of each dose was administrated orally 30 minutes before the treatment of cyclophosphamide, and 4, 20, 30 and 45 hours after the treatment of cyclophosphamide. The solvent group (hereinafter, it may be referred to as vehicle.) was administrated distilled water which is the solvent of the test compound. The following cystometry was carried out 48 hours after the treatment of cyclophosphamide.
The rats anesthetized with diethyl ether were kept in ballman cage. The tip of the indwelling catheter for use in measurement of voiding pressure was connected through a three-way valve. Another end of the three-way valve was connected to a pressure transducer, while the other end was connected to a syringe for intravesical injection which was mounted on an infusion pump. A signal of voiding pressure was recorded using an amp recorder of strain pressure
After awaking from anesthesia, saline was injected into the bladder of the rats at a rate of 2.85 mL/h. After the pattern of the micturition reflex was stable, the residual urine was removed. Afterwards, saline was injected again into the bladder at a rate of 2.85 mL/h, and the voiding pressure and the urination interval were measured. The bladder capacity was calculated from the urination interval. The bladder compliance was calculated by dividing the bladder capacity by the voiding pressure.

[1] = 1000 μg/kg orally, cyclophosphamide-induced cystitis, female Wistar rats

| Compound | decrease of the bladder compliance induced by cyclophosphamide (300 μg/kg orally, 30 min before and 4, 20, 30 and 45 h after cyclophosphamide (150 mg/kg i.p.), cystometry 48 h after, FIG. 2) | decrease of the bladder capacity induced by cyclophosphamide (300 μg/kg orally, 30 min before and 4, 20, 30 and 45 h after cyclophosphamide (150 mg/kg i.p.), cystometry 48 h after, female Wistar rats, FIG. 1) | voiding pressure (oral administration, regardless of the presence of the cyclophosphamide treatment, FIG. 3) | decrease of the bladder capacity induced by cyclophosphamide [1] | decrease of the bladder compliance induced by cyclophosphamide [1] |
| --- | --- | --- | --- | --- | --- |
| O=C(O)CCCSCCN1C(=O)CC[C@@H]1/C=C/[C@@H](O)Cc1ccc(F)cc1 [compound 1, 4-[(2-{(2R)-2-[(1E,3S)-4-(4-fluorophenyl)-3-hydroxybut-1-enyl]-5-oxopyrrolidin-1-yl}ethyl)sulfanyl]butanoic acid] | improved | improved | decreased |  |  |
| methyl 4-{[2-((1R,2R,3R)-3-hydroxy-2-{(1E,3S)-3-hydroxy-4-[3-(methoxymethyl)phenyl]but-1-enyl}-5-oxocyclopenty)ethyl]sulfanyl}butanoate α-cyclodextrin clathrate [compound 2] |  |  |  | improved | improved |
